Results from patent US6156700A, “3-(1,2-Benzisothiazol- and isoxazol-5-yl)-2,4(1H,3H)-pyrimidinedione or thione and 3-(1,2-benzisothiazol- and isoxazol-5-yl)-4(3H)-pyrimidinone or thione herbicidal agents” (American Cyanmid Company, priority 1998, dated 2000).

Legend:
[1] = tested on: Morningglory, Ivyleaf, Ipomoea hederacea; test: Preemergence herbicidal evaluation, IPOHE; assay type: in vivo, (L.) Jacq.; conditions: 0.2500 kg/ha
In short: (§1)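 Values are 0–9 visual ratings of stand, vigor, malformation, size, chlorosis and overall appearance relative to a control, scored 4 to 5 weeks after treatment. Test compound in aqueous acetone was sprayed onto soil right after seeding, at rates equivalent to about 0.0156–0.500 kg per hectare.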

[2] = tested on: Soybean, Williams, Glycine max; test: Preemergence herbicidal evaluation, GLXMAW; assay type: in vivo, (L.) Merr. cv Williams; conditions: 0.2500 kg/ha
In short: as §1

ABUTH = test: Preemergence herbicidal evaluation; assay type: in vivo; set-up: scale not given here
AMBEL [3] = test: Preemergence herbicidal evaluation; assay type: in vivo; set-up: scale not given here
CASOB [4] = test: Preemergence herbicidal evaluation; assay type: in vivo; set-up: scale not given here
CHEAL [5] = test: Preemergence herbicidal evaluation; assay type: in vivo; set-up: scale not given here
GALAP [6] = test: Preemergence herbicidal evaluation; assay type: in vivo; set-up: scale not given here
IPOSS = test: Preemergence herbicidal evaluation; assay type: in vivo; set-up: scale not given here
SETVI [7] = test: Preemergence herbicidal evaluation; assay type: in vivo; set-up: scale not given here
TRZAWR = test: Preemergence herbicidal evaluation; assay type: in vivo; set-up: scale not given here
ZEAMX [8] = test: Preemergence herbicidal evaluation; assay type: in vivo; set-up: scale not given here
GLXMA = test: Preemergence herbicidal evaluation; assay type: in vivo
AMBEL [9] = test: Postemergence herbicidal evaluation; assay type: in vivo
CASOB [10] = test: Postemergence herbicidal evaluation; assay type: in vivo
CHEAL [11] = test: Postemergence herbicidal evaluation; assay type: in vivo
GALAP [12] = test: Postemergence herbicidal evaluation; assay type: in vivo
ECHCG = test: Postemergence herbicidal evaluation; assay type: in vivo
SETVI [13] = test: Postemergence herbicidal evaluation; assay type: in vivo
ORYSAT = test: Postemergence herbicidal evaluation; assay type: in vivo, Oryza sativa
ZEAMX [14] = test: Postemergence herbicidal evaluation; assay type: in vivo

## COC(=O)C(C)Oc1ccc(C)cc1-c1nsc2ccc(-n3c(=O)cc(C(F)(F)F)n(C)c3=O)cc12 (centres unmarked) [Compound 3]
[1]
  herbicide rating (0-9): 9.0
[2]
  herbicide rating (0-9): 5.0

## COC(=O)COc1ccc(C)cc1-c1nsc2ccc(-n3c(=O)cc(C(F)(F)F)n(C)c3=O)cc12 [Compound 2, Methyl {{2-{5-[3,6-dihydro-3-methyl-4-(trifluoromethyl) -2,6-dioxo-1(2H)-pyrimidinyl]-1,2-benzisothiazol-3-yl]-p-tolyl}oxy}acetate]
[1]
  herbicide rating (0-9): 9.0
[2]
  herbicide rating (0-9): 8.5

## COc1ccc(C)cc1-c1nsc2ccc(-n3c(=O)cc(C(F)(F)F)n(C)c3=O)cc12 [Compound 1, 3-[3-(6-Methoxy-m-tolyl)-1,2-benzisothiazol-5-yl]-1-methyl-6-(trifluoromethyl)-2,4(1H,3H)-pyrimidinedione]
[1]
  herbicide rating (0-9): 8.0
[2]
  herbicide rating (0-9): 7.5

## Cn1c(C(F)(F)F)cc(=O)n(-c2ccc3snc(-c4ccccc4)c3c2)c1=O [Compound 4, 1-Methyl-3-(3-phenyl-1,2-benzisothiazol-5-yl)-6-(trifluoromethyl)-2,4(1H,3H)-pyrimidinedione]
ABUTH; 0.0313-0.0320 kg/ha
  herbicidal effect rating: 9.0
ABUTH; 0.0620-0.0630 kg/ha
  herbicidal effect rating: 9.0
ABUTH; 0.1250 kg/ha
  herbicidal effect rating: 9.0
ABUTH; 0.2500 kg/ha
  herbicidal effect rating: 9.0
ABUTH; 0.5000 kg/ha
  herbicidal effect rating: 9.0
AMBEL [3]; 0.0313-0.0320 kg/ha
  herbicidal effect rating: 7.0
AMBEL [3]; 0.0620-0.0630 kg/ha
  herbicidal effect rating: 7.0
AMBEL [3]; 0.1250 kg/ha
  herbicidal effect rating: 9.0
AMBEL [3]; 0.2500 kg/ha
  herbicidal effect rating: 9.0
AMBEL [3]; 0.5000 kg/ha
  herbicidal effect rating: 9.0
CASOB [4]; 0.0313-0.0320 kg/ha
  herbicidal effect rating: 7.0
CASOB [4]; 0.0620-0.0630 kg/ha
  herbicidal effect rating: 7.0
CASOB [4]; 0.1250 kg/ha
  herbicidal effect rating: 6.0
CASOB [4]; 0.2500 kg/ha
  herbicidal effect rating: 9.0
CASOB [4]; 0.5000 kg/ha
  herbicidal effect rating: 9.0
CHEAL [5]; 0.0313-0.0320 kg/ha
  herbicidal effect rating: 9.0
CHEAL [5]; 0.0620-0.0630 kg/ha
  herbicidal effect rating: 9.0
CHEAL [5]; 0.1250 kg/ha
  herbicidal effect rating: 9.0
CHEAL [5]; 0.2500 kg/ha
  herbicidal effect rating: 9.0
CHEAL [5]; 0.5000 kg/ha
  herbicidal effect rating: 9.0
GALAP [6]; 0.0313-0.0320 kg/ha
  herbicidal effect rating: 9.0
GALAP [6]; 0.0620-0.0630 kg/ha
  herbicidal effect rating: 9.0
GALAP [6]; 0.1250 kg/ha
  herbicidal effect rating: 6.0
GALAP [6]; 0.2500 kg/ha
  herbicidal effect rating: 9.0
GALAP [6]; 0.5000 kg/ha
  herbicidal effect rating: 9.0
IPOSS; 0.0313-0.0320 kg/ha
  herbicidal effect rating: 2.0
IPOSS; 0.0620-0.0630 kg/ha
  herbicidal effect rating: 4.0
IPOSS; 0.1250 kg/ha
  herbicidal effect rating: 7.0
IPOSS; 0.2500 kg/ha
  herbicidal effect rating: 9.0
IPOSS; 0.5000 kg/ha
  herbicidal effect rating: 9.0
SETVI [7]; 0.0313-0.0320 kg/ha
  herbicidal effect rating: 9.0
SETVI [7]; 0.0620-0.0630 kg/ha
  herbicidal effect rating: 9.0
SETVI [7]; 0.1250 kg/ha
  herbicidal effect rating: 9.0
SETVI [7]; 0.2500 kg/ha
  herbicidal effect rating: 9.0
SETVI [7]; 0.5000 kg/ha
  herbicidal effect rating: 9.0
TRZAWR; 0.0313-0.0320 kg/ha
  herbicidal effect rating: 2.0
TRZAWR; 0.0620-0.0630 kg/ha
  herbicidal effect rating: 5.0
TRZAWR; 0.1250 kg/ha
  herbicidal effect rating: 7.0
TRZAWR; 0.2500 kg/ha
  herbicidal effect rating: 7.0
TRZAWR; 0.5000 kg/ha
  herbicidal effect rating: 7.0
ZEAMX [8]; 0.0313-0.0320 kg/ha
  herbicidal effect rating: 3.0
ZEAMX [8]; 0.0620-0.0630 kg/ha
  herbicidal effect rating: 7.0
ZEAMX [8]; 0.1250 kg/ha
  herbicidal effect rating: 7.0
ZEAMX [8]; 0.2500 kg/ha
  herbicidal effect rating: 7.0
ZEAMX [8]; 0.5000 kg/ha
  herbicidal effect rating: 7.0
GLXMA; 0.0313-0.0320 kg/ha
  herbicidal effect rating: 3.0
GLXMA; 0.0620-0.0630 kg/ha
  herbicidal effect rating: 9.0
GLXMA; 0.1250 kg/ha
  herbicidal effect rating: 9.0
GLXMA; 0.2500 kg/ha
  herbicidal effect rating: 7.0
GLXMA; 0.5000 kg/ha
  herbicidal effect rating: 9.0
AMBEL [9]; 0.0157-0.0160 kg/ha
  herbicidal effect rating: 9.0
AMBEL [9]; 0.0313-0.0320 kg/ha
  herbicidal effect rating: 7.0
AMBEL [9]; 0.0625-0.0640 kg/ha
  herbicidal effect rating: 9.0
AMBEL [9]; 0.1250 kg/ha
  herbicidal effect rating: 9.0
AMBEL [9]; 0.2500 kg/ha
  herbicidal effect rating: 9.0
AMBEL [9]; 0.5000 kg/ha
  herbicidal effect rating: 9.0
CASOB [10]; 0.0157-0.0160 kg/ha
  herbicidal effect rating: 7.0
CASOB [10]; 0.0313-0.0320 kg/ha
  herbicidal effect rating: 7.0
CASOB [10]; 0.0625-0.0640 kg/ha
  herbicidal effect rating: 9.0
CASOB [10]; 0.1250 kg/ha
  herbicidal effect rating: 9.0
CASOB [10]; 0.2500 kg/ha
  herbicidal effect rating: 9.0
CASOB [10]; 0.5000 kg/ha
  herbicidal effect rating: 9.0
CHEAL [11]; 0.0157-0.0160 kg/ha
  herbicidal effect rating: 9.0
CHEAL [11]; 0.0313-0.0320 kg/ha
  herbicidal effect rating: 9.0
CHEAL [11]; 0.0625-0.0640 kg/ha
  herbicidal effect rating: 9.0
CHEAL [11]; 0.1250 kg/ha
  herbicidal effect rating: 9.0
CHEAL [11]; 0.2500 kg/ha
  herbicidal effect rating: 9.0
CHEAL [11]; 0.5000 kg/ha
  herbicidal effect rating: 9.0
GALAP [12]; 0.0157-0.0160 kg/ha
  herbicidal effect rating: 4.0
GALAP [12]; 0.0313-0.0320 kg/ha
  herbicidal effect rating: 9.0
GALAP [12]; 0.0625-0.0640 kg/ha
  herbicidal effect rating: 9.0
GALAP [12]; 0.1250 kg/ha
  herbicidal effect rating: 9.0
GALAP [12]; 0.2500 kg/ha
  herbicidal effect rating: 9.0
GALAP [12]; 0.5000 kg/ha
  herbicidal effect rating: 9.0
ECHCG; 0.0157-0.0160 kg/ha
  herbicidal effect rating: 2.0
ECHCG; 0.0313-0.0320 kg/ha
  herbicidal effect rating: 5.0
ECHCG; 0.0625-0.0640 kg/ha
  herbicidal effect rating: 7.0
ECHCG; 0.1250 kg/ha
  herbicidal effect rating: 8.0
ECHCG; 0.2500 kg/ha
  herbicidal effect rating: 8.0
ECHCG; 0.5000 kg/ha
  herbicidal effect rating: 9.0
SETVI [13]; 0.0157-0.0160 kg/ha
  herbicidal effect rating: 8.0
SETVI [13]; 0.0313-0.0320 kg/ha
  herbicidal effect rating: 9.0
SETVI [13]; 0.0625-0.0640 kg/ha
  herbicidal effect rating: 9.0
SETVI [13]; 0.1250 kg/ha
  herbicidal effect rating: 9.0
SETVI [13]; 0.2500 kg/ha
  herbicidal effect rating: 9.0
SETVI [13]; 0.5000 kg/ha
  herbicidal effect rating: 9.0
ORYSAT; 0.0157-0.0160 kg/ha
  herbicidal effect rating: 2.0
ORYSAT; 0.0313-0.0320 kg/ha
  herbicidal effect rating: 2.0
ORYSAT; 0.0625-0.0640 kg/ha
  herbicidal effect rating: 2.0
ORYSAT; 0.1250 kg/ha
  herbicidal effect rating: 3.0
ORYSAT; 0.2500 kg/ha
  herbicidal effect rating: 3.0
ORYSAT; 0.5000 kg/ha
  herbicidal effect rating: 4.0
ZEAMX [14]; 0.0157-0.0160 kg/ha
  herbicidal effect rating: 2.0
ZEAMX [14]; 0.0313-0.0320 kg/ha
  herbicidal effect rating: 2.0
ZEAMX [14]; 0.0625-0.0640 kg/ha
  herbicidal effect rating: 3.0
ZEAMX [14]; 0.1250 kg/ha
  herbicidal effect rating: 3.0
ZEAMX [14]; 0.2500 kg/ha
  herbicidal effect rating: 3.0
ZEAMX [14]; 0.5000 kg/ha
  herbicidal effect rating: 3.0
